In brackets after ≈: the same amount, converted by molar mass. Like-named read-outs stand apart in the source and are kept apart here.
Legend:
[1] = acute toxicity by intravenous injection in mice; conditions: mouse, in vivo
Escherichia coli ML 1629 = assay: MIC, serial dilution on nutrient agar; format: cell-based
Protocol: (§1) For comparison purpose, the minimum inhibitory concentrations (MIC.) of 1-N-(L-4-amino-2-hydroxybutyryl)-kanamycin A, namely amikacin and of 2',3'-dideoxykanamycin A (abbreviated as DKA) are also shown in Table 1.
(§2) The minimum inhibitory concentrations (mcg/ml) of these kanamycin A derivatives against the various bacteria were determined according to a standard serial dilution method on a nutrient agar medium at 37° C., the estimation being made after 18 hours incubation.

[2] = test system: Serratia marcescens I-0139; assay: MIC, serial dilution on nutrient agar; format: cell-based; conditions: I0139, S. marcescens I-0139, 37° C., 18 hours
Protocol: as §1, §2

[3] = test system: Staphylococcus aureus Ap 01; assay: MIC, serial dilution on nutrient agar; format: cell-based
Protocol: as §1, §2

[4] = test system: Staphylococcus aureus 209P; assay: MIC, serial dilution on nutrient agar; format: cell-based; conditions: S. aureus 209P, 37° C., 18 hours
Protocol: as §1, §2

Proteus rettgeri GN 311 = assay: MIC, serial dilution on nutrient agar; format: cell-based; conditions: Providencia rettgeri, GN311, 37° C., 18 hours
Protocol: as §1, §2

[5] = test system: Serratia marcescens I-0111; assay: MIC, serial dilution on nutrient agar; format: cell-based
Protocol: as §1, §2

[6] = test system: Pseudomonas aeruginosa K-Ps 102; assay: MIC, serial dilution on nutrient agar; format: cell-based
Protocol: as §1, §2

[7] = test system: Bacillus subtilis PCI 219; assay: MIC, serial dilution on nutrient agar; format: cell-based; conditions: PCI219, B. subtilis PCI 219, 37° C., 18 hours
Protocol: as §1, §2

[8] = test system: Pseudomonas aeruginosa A3; assay: MIC, serial dilution on nutrient agar; format: cell-based; conditions: P. aeruginosa A3, 37° C., 18 hours
Protocol: as §1, §2

Serratia sp. 4 = assay: MIC, serial dilution on nutrient agar; format: cell-based; conditions: 37° C., 18 hours
Protocol: as §1, §2

[9] = test system: Serratia marcescens I-0115; assay: MIC, serial dilution on nutrient agar; format: cell-based
Protocol: as §1, §2

[10] = test system: Pseudomonas aeruginosa H9; assay: MIC, serial dilution on nutrient agar; format: cell-based
Protocol: as §1, §2

[11] = test system: Serratia marcescens I-0162; assay: MIC, serial dilution on nutrient agar; format: cell-based
Protocol: as §1, §2

Escherichia coli ML R 81 = assay: MIC, serial dilution on nutrient agar; format: cell-based
Protocol: as §1, §2

Escherichia coli ML 1630 = assay: MIC, serial dilution on nutrient agar; format: cell-based; conditions: ML1630, E. coli ML 1630, 37° C., 18 hours
Protocol: as §1, §2

[12] = test system: Pseudomonas aeruginosa B-13; assay: MIC, serial dilution on nutrient agar; format: cell-based
Protocol: as §1, §2

Escherichia coli J5R11-2 = assay: microbe, parasite or virus in culture; conditions: J5R112, 18 h
Protocol: as §1, §2

[13] = ML1629, E. coli ML 1629, nutrient agar, 37° C., 18 hours, read-out: MIC.
[14] = AP01, S. aureus Ap 01, nutrient agar, 37° C., 18 hours, read-out: MIC.
[15] = P. aeruginosa H9, nutrient agar, 37° C., 18 hours, read-out: MIC.
[16] = MLR81, E. coli ML R 81, nutrient agar, 37° C., 18 hours, read-out: MIC.
[17] = I0111, S. marcescens I-0111, nutrient agar, 37° C., 18 hours, read-out: MIC.
[18] = I0115, S. marcescens I-0115, nutrient agar, 37° C., 18 hours, read-out: MIC.

Compound	LD50 [1] [mg/kg]	MIC (Escherichia coli ML 1629; [13]) [µg/mL]	MIC [2] [µg/mL]	MIC [3, 14] [µg/mL]	MIC [4] [µg/mL]	MIC (Proteus rettgeri GN 311) [µg/mL]	MIC ([6]; KPS102, 18 h) [µg/mL]	MIC [7] [µg/mL]	MIC [8] [µg/mL]	MIC (Serratia sp. 4) [µg/mL]	MIC [10, 15] [µg/mL]	MIC ([11]; I0162, 18 h) [µg/mL]	MIC (Escherichia coli ML R 81; [16]) [µg/mL]	MIC (Escherichia coli ML 1630) [µg/mL]	MIC ([12]; B13, 18 h) [µg/mL]	MIC (Escherichia coli J5R11-2) [µg/mL]	MIC [5, 17] [µg/mL]	MIC [9, 18] [µg/mL]	other results
NCC[C@H](O)C(=O)N[C@@H]1C[C@H](N)[C@@H](O[C@@H]2CC[C@H](O)[C@@H](CN)O2)[C@H](O)[C@H]1O[C@H]1O[C@H](CO)[C@@H](O)[C@H](N)[C@H]1O [AHDK]	326	1.56 (≈ 2.82 µM)	12.5 (≈ 22.6 µM)	0.39 (≈ 0.704 µM)	0.1 (≈ 0.181 µM)	0.39 (≈ 0.704 µM)	6.25 (≈ 11.3 µM)	0.2 (≈ 0.361 µM)	0.78 (≈ 1.41 µM)	1.56 (≈ 2.82 µM)	3.13 (≈ 5.65 µM)	6.25 (≈ 11.3 µM)	1.56 (≈ 2.82 µM)	1.56 (≈ 2.82 µM)	12.5 (≈ 22.6 µM)	0.78 (≈ 1.41 µM)			MIC ([5]; I0111, 18 h): 6.25 µg/mL (≈ 11.3 µM); MIC ([9]; I0115, 18 h): 6.25 µg/mL (≈ 11.3 µM)
NCC[C@H](O)C(=O)N[C@@H]1C[C@H](N)[C@@H](O[C@H]2O[C@H](CN)[C@@H](O)[C@H](O)[C@H]2O)[C@H](O)[C@H]1O[C@H]1O[C@H](CO)[C@@H](O)[C@H](N)[C@H]1O [Amikacin, 1-N-(L-4-amino-2-hydroxybutyryl)-kanamycin A, reference compound]			100 (≈ 171 µM)		0.78 (≈ 1.33 µM)	0.39 (≈ 0.666 µM)		0.39 (≈ 0.666 µM)	< 0.2	3.13 (≈ 5.34 µM)	6.25 (≈ 10.7 µM)			3.13 (≈ 5.34 µM)		1.56 (≈ 2.66 µM)	25 (≈ 42.7 µM)	50 (≈ 85.4 µM)	MIC (Escherichia coli ML 1629; ML1629, 18 h): 1.56 µg/mL (≈ 2.66 µM); MIC ([3]; AP01, 18 h): 1.56 µg/mL (≈ 2.66 µM); MIC ([6]; KPS102, P. aeruginosa K-Ps 102, nutrient agar, 37° C., 18 hours, read-out: MIC.): 6.25 µg/mL (≈ 10.7 µM); MIC ([11]; I0162, S. marcescens I-0162, nutrient agar, 37° C., 18 hours, read-out: MIC.): 50 µg/mL (≈ 85.4 µM); MIC (Escherichia coli ML R 81; MLR81, 18 h): 1.56 µg/mL (≈ 2.66 µM); MIC ([12]; B13, P. aeruginosa B-13, nutrient agar, 37° C., 18 hours, read-out: MIC.): 6.25 µg/mL (≈ 10.7 µM)
NC[C@H]1O[C@H](O[C@H]2[C@H](O)[C@@H](O[C@H]3O[C@H](CO)[C@@H](O)[C@H](N)[C@H]3O)[C@H](N)C[C@@H]2N)CC[C@@H]1O [DKA, 2',3'-dideoxykanamycin A]		1.56 (≈ 3.45 µM)		3.13 (≈ 6.92 µM)	1.56 (≈ 3.45 µM)		6.25 (≈ 13.8 µM)	0.39 (≈ 0.862 µM)	1.56 (≈ 3.45 µM)				3.13 (≈ 6.92 µM)	3.13 (≈ 6.92 µM)	12.5 (≈ 27.6 µM)	3.12 (≈ 6.89 µM)			MIC ([10]; H9, 18 h): 6.25 µg/mL (≈ 13.8 µM)
NC[C@H](O)C(=O)N[C@@H]1C[C@H](N)[C@@H](O[C@@H]2CC[C@H](O)[C@@H](CN)O2)[C@H](O)[C@H]1O[C@H]1O[C@H](CO)[C@@H](O)[C@H](N)[C@H]1O [ISDK, 1-N-(L-3-amino-2-hydroxy-propionyl)-2',3'-dideoxykanamycin A]	240	1.56 (≈ 2.89 µM)	6.25 (≈ 11.6 µM)	0.78 (≈ 1.45 µM)	0.2 (≈ 0.371 µM)	0.39 (≈ 0.723 µM)	6.25 (≈ 11.6 µM)	0.39 (≈ 0.723 µM)	0.78 (≈ 1.45 µM)	1.56 (≈ 2.89 µM)	3.13 (≈ 5.8 µM)	6.25 (≈ 11.6 µM)	1.56 (≈ 2.89 µM)	3.13 (≈ 5.8 µM)	12.5 (≈ 23.2 µM)	0.78 (≈ 1.45 µM)	3.13 (≈ 5.8 µM)	3.13 (≈ 5.8 µM)	

Source: patent publication US4547492A, “1-N-(ω-Amino-α-hydroxyalkanoyl-2',3'-dideoxykanamycin A and pharmaceutical composition containing same” (Zaidan Hojin Biseibutsu Kagaku Kenkyu Kai, priority 1983, dated 1985)
